According to publication PMC4842970, “Bioactivity Focus of α-Cyano-4-hydroxycinnamic acid (CHCA) Leads to Effective Multifunctional Aldose Reductase Inhibitors” (Scientific Reports, 2016):
Like-named read-outs stand apart in the source and are kept apart here.

How the values were obtained:
[1] = target: T1, human ALR2 (Homo sapiens, UniProt P15121); assay: ALR2 inhibition (in vitro reduction of D,L-glyceraldehyde); assay type: biochemical
T1 construct: purchased WAKO Pure Chemical Industries, Ltd. (Japan); host or cells: baculovirus-insect cell expression system
Experimental: Human ALR2 was purchased from WAKO Pure Chemical Industries, Ltd. (Japan), which was purified from the culture medium of baculovirus-insect cell expression system. […] ALR2 inhibition was determined spectrophotometrically according to the procedure described previously.

[2] = ORACFL radical absorbance capacity assay
From the text: With the CHCA scaffold, we hypothesized that 5a–j should have antioxidant activity. Therefore, a radical absorbance capacity assay (ORACFL)[41] was employed to assess their capacities. This method is based on the inhibition of peroxyl-radical-induced oxidation initiated by thermal decomposition of azo-compounds, in this case 2,2′-azo-bis (2-amidinopropane) dihydrochloride (AAPH). Trolox (6-hydroxy-2,5,7,8-tetramethylchroman-2-carboxylic acid) was used as a standard reference. Data is expressed as micromoles of Trolox equivalents (TE) per […] of sample (μmol TE/ml or U/ml).
Antioxidant capacity was determined according to the procedure described previously.

[3] = human ALR2, D,L-glyceraldehyde as substrate, read-out: IC50 (ALR2 inhibition)

| IC50 [1, 3] [nM] | melting point [°C] | SMILES | IC50 [1] [nM] | ORAC ([2]; 3.125 μg/ml) [U/ml] | ORAC ([2]; 6.25 μg/ml) [U/ml] | ORAC ([2]; 12.5 μg/ml) [U/ml] |
| --- | --- | --- | --- | --- | --- | --- |
| – | – | N#CC(=Cc1ccc(O)cc1)C(=O)O [CHCA, α-cyano-4-hydroxycinnamic acid] | 133 ± 1.8 | 52.3 ± 3.1 | 51.2 ± 1.1 | 48.8 ± 1.3 |
| 137 ± 2.9 | – | CC(=O)N1CCC[C@H]1C(=O)NCCNC(=O)/C(C#N)=C/c1ccc(O)cc1 [Compound 5a, (S,E) - 1 - acetyl -N-(2-(2-cyano-3-(4-hydroxyphenyl)acrylamido)ethyl)pyrroli-dine-2-carboxamide] | – | 57.0 ± 2.3 | 52.4 ± 2.1 | 49.8 ± 1.7 |
| 136 ± 2.4 | – | CC(=O)N1CCC[C@@H]1C(=O)NCCNC(=O)/C(C#N)=C/c1ccc(O)cc1 [Compound 5b, (R,E) -1-acetyl - N - (2-(2-cyano-3-(4-hydroxyphenyl)acrylamido)ethyl)pyrroli-dine-2-carboxamide] | – | 47.1 ± 2.4 | 44.1 ± 2.5 | 42.9 ± 3.3 |
| 316 ± 6.2 | 176 to 178 | CC(=O)N[C@@H](COCc1ccccc1)C(=O)NCCNC(=O)/C(C#N)=C/c1ccc(O)cc1 [Compound 5c, (S,E) – N - (2 - (2-acetamido-3-(benzyloxy)propanamido)ethyl)-2-cyano-3-(4-hydroxyphenyl)acrylamide] | – | 32.4 ± 1.8 | 30.4 ± 1.7 | 26.4 ± 2.9 |
| 99.8 ± 2 | – | CC(=O)N[C@@H](COCc1ccccc1)C(=O)NCCCNC(=O)/C(C#N)=C/c1ccc(O)cc1 [Compound 5e, (S,E) – N - (3-(2-acetamido-3-(benzyloxy)propanamido)propyl)-2-cyano-3-(4-hydroxyphenyl)acrylamide] | – | 65.7 ± 2.7 | 62.6 ± 1.5 | 60.4 ± 2.2 |
| 273 ± 4.6 | – | CC(C)(C)C(=O)N[C@@H](COCc1ccccc1)C(=O)NCCNC(=O)/C(C#N)=C/c1ccc(O)cc1 [Compound 5g, (S,E) - N - (2-(2-pivalamido-3-(benzyloxy)propanamido)ethyl)-2-cyano-3-(4-hydroxyphenyl)acrylamide] | – | 38.3 ± 2.6 | 33.9 ± 1.4 | 30.4 ± 3.7 |
| 252 ± 4.6 | – | CC(C)(C)C(=O)N[C@H](COCc1ccccc1)C(=O)NCCNC(=O)/C(C#N)=C/c1ccc(O)cc1 [Compound 5h, (R,E) - N - (2-(2-pivalamido-3-(benzyloxy)propanamido)ethyl)-2-cyano-3-(4-hydroxyphenyl)acrylamide] | – | 50.3 ± 3.2 | 45.2 ± 1.3 | 42.8 ± 1.1 |
| 221 ± 3.9 | – | CC(C)(C)C(=O)N[C@@H](COCc1ccccc1)C(=O)NCCCNC(=O)/C(C#N)=C/c1ccc(O)cc1 [Compound 5i, (S,E) - N - (3-(2-pivalamido-3-(benzyloxy)propanamido)propyl)-2-cyano-3-(4-hydroxyphenyl)acrylamide] | – | 36.4 ± 3.5 | 35.6 ± 3.9 | 35.3 ± 2.1 |
| 247 ± 4.5 | – | CC(C)(C)C(=O)N[C@H](COCc1ccccc1)C(=O)NCCCNC(=O)/C(C#N)=C/c1ccc(O)cc1 [Compound 5j, (R,E) - N - (3-(2-pivalamido-3-(benzyloxy)propanamido)propyl)-2-cyano-3-(4-hydroxyphenyl)acrylamide] | – | 38.6 ± 1.9 | 35.3 ± 1.7 | 30.6 ± 2.2 |
| 138 ± 2.2 | – | O=c1c2cc(O)c(O)cc2oc2cc(O)c([C@@H]3O[C@H](CO)[C@@H](O)[C@H](O)[C@H]3O)c(O)c12 [Mangiferin, reference compound] | – | 75.3 ± 0.4 | 74.8 ± 0.8 | 73.2 ± 7.2 |
| – | – | Cc1c(C)c2c(c(C)c1O)CCC(C)(C(=O)O)O2 (centres unmarked) [Trolox, 6-hydroxy-2,5,7,8-tetramethylchroman-2-carboxylic acid, reference compound] | – | 95.3 ± 3.7 | 92.8 ± 2.7 | 85.2 ± 4.3 |
